Experiment [1] deals with A (H1N1)pdm09 neuraminidase (NA). Format: biochemical, influenza A (H1N1)pdm09 virus.
The subject of experiment [2] is B/Victoria neuraminidase (NA). The class given is biochemical, influenza B/Victoria lineage virus.
Experiment [3] deals with influenza A viruses. Format: cell-based, influenza A virus.
In experiment [4] the test system is type A viruses. The settings on record: cited from earlier work.
Experiment [5] concerns A(H3N2) viruses. The class given is cell-based, influenza A(H3N2) virus.
In experiment [6] the test system is A(H1N1)pdm09 viruses. Format: cell-based, influenza A(H1N1)pdm09 virus.

The structures appear in SMILES notation.

As to `CCC(CC)[C@H](NC(C)=O)[C@@H]1[C@H](O)[C@@H](C(=O)O)C[C@H]1N=C(N)N` [Peramivir, peramivir], the “IC50 Fold” value in experiment [1] is 301 fold. In experiment [2], the “IC50 fold vs NA sequence-matched virus” value turned out to be 14 fold and the “effect of substitution on inhibition of NA activity” value was “improving the ability”.
On to `CCOC(=O)C1=C[C@@H](OC(CC)CC)[C@H](NC(C)=O)[C@@H](N)C1` [Oseltamivir, oseltamivir], for which, in experiment [2], the “effect of substitution on inhibition of NA activity” value was “improving the ability”.
For `O=C1c2c(O)c(=O)ccn2N([C@@H]2c3ccccc3SCc3c2ccc(F)c3F)[C@@H]2COCCN12` [Baloxavir, baloxavir], in experiment [3], the “change in EC50” value is “• Natural polymorphism • No or little change in EC50 (<3-fold)”. Moreover, in experiment [4], the “elevated baloxavir EC50 in cell culture” value was “• Primary treatment-emergent; associated with diminished virologic response in clinical settings • Rarely as natural polymorphism • Confers elevated baloxavir EC50 in cell culture (11–614-fold)” and the “variably elevated baloxavir EC50” value is “• Most are natural polymorphisms • Some emerged post baloxavir exposure or introduced for assessment • Confer variably elevated baloxavir EC50 (<3–19 fold)”. Also, in experiment [5], the “effect on baloxavir susceptibility” value is given as “no effect”. Also, the “effect on baloxavir susceptibility” value in experiment [6] is on record as “no effect”.

These data come from paper PMC12621569 (Antiviral research, 2025).
